The values that follow come from patent publication US10695279B2, “Peptide having skin-whitening activity and use thereof” (CAREGEN CO., LTD., priority 2017, dated 2020).

Assay [1] concerns tyrosinase. Kind of assay: Measurement of tyrosinase expression level (fluorescence microscope, tyrosinase antibody). The class given is cell-based, mouse. To be noted: B16F10, α-MSH (200 ng/ml), peptide 50, 100 uM, 48 hours; dose-dependent; FIG. 5. On the procedure: Then, the cells were incubated for 48 hours, and the intracellular expression protein was stained with FITC-conjugated tyrosinase antibody (Santa Cruz biotechnology, USA) and FITC-conjugated secondary IgG antibody (Santa Cruz biotechnology, USA).

For assay [2], the system named is tyrosinase. Put plainly: Gene expression of melanin-forming factors (PCR): tyrosinase. The settings on record: B16F10, α-MSH (200 ng/ml), peptide 100, 200 uM, 24 hours, FIG. 6. In kind it is cell-based, mouse.
Assay [3] relates to tyrosinase. Kind of assay: Protein expression of melanin-forming factors (western blot): tyrosinase. In kind it is cell-based, mouse. To be noted: B16F10, α-MSH (200 ng/ml), peptide 50, 100 uM, 72 hours, FIG. 7. (In general: A western blot detects proteins with antibodies after separation by electrophoresis.)
Assay [4] has as its system human keratinocyte line (HaCaT). To be noted: melanosomes isolated from B16F10, peptide 10, 50, 100, 200 uM, 48 hours, Fontana-Masson staining, dose-dependent, FIG. 11. On the procedure: After human keratinocyte line (HaCaT) was cultured in 6-well culture plates for 24 hours, the melanosomes isolated from mouse melanoma cell line (B16F10) were pretreated for 3 hours in serum-free culture medium. Then, the cells were treated with the present peptide at different concentrations (10, 50, 100, 200 uM) or arbutin (200 uM) as a positive control, followed by incubation for 48 hours. Then, the plates were washed with PBS to remove un-transferred melanosomes, and subjected to Fontana-Masson staining to observe the inhibition of the melanosome phagocytosis by keratinocytes through a microscope.

Assay [5] relates to melanin-forming cells (B16F10 cell line). The settings on record: B16F10, α-MSH (200 ng/ml), peptide 50, 100, 200 uM, 72 hours; dose-dependent, **P≤0.01; FIGS. 2a and 2b.
Description: After melanin-forming cells (B16F10 cell line) dispensed in 6-well culture plates were incubated in a 37° C. incubator for 24 hours, the medium for each plate was removed and then replaced with new medium (2% serum medium). Then, the cells were treated with α-MSH (200 ng/ml), arbutin (200, 500 uM), or the peptide of the present invention at different concentrations (50, 100, 200 uM). Thereafter, the cells were incubated for 72 hours, and then the culture medium was removed. The cells were detached and then transferred into a 1.5 ml tube, followed by centrifugation at 13,000 rpm for 3 minutes. The supernatant was removed, and cell pellets were collected to observe melanin. Then, 150 μl of 2 M NaOH was added to the cell pellets to lyse intracellular melanin at 60° C. for 30 minutes. Then, 100 μl of the supernatant obtained from the lysis was added into each well of a 96-well plate, and the absorbance at 490 nm was measured.
Assay [6] relates to MITF. The settings on record: B16F10, α-MSH (200 ng/ml), peptide 50, 100 uM, 72 hours, western blot; FIG. 7. On the procedure:
(§1) After melanin-forming cells (B16F10 cell line) were incubated in 6-well culture plates for 24 hours, the cells were treated with α-MSH (200 ng/ml) or the present peptide at different concentrations (50, 100 uM).

For the next assay, the system named is CREB. The settings on record: B16F10, α-MSH (200 ng/ml), peptide 50, 100 uM, 10 minutes, western blot; FIG. 8. On the procedure:
as §1

The subject of a further assay is C57BL/6 mice. Kind of assay: In vivo whitening effect, application to the tail. The settings on record: C57BL/6 mice tail skin, liposomal peptide 5,000 ppm once a day, about 8 weeks, F&M staining, versus control group; FIGS. 14b and 14c.
Assay [7] relates to human keratinocyte line (HaCaT). The settings on record: melanosomes pretreated 48 hours, peptide 100, 200 uM, dose-dependent, FIG. 13.
Description: After human keratinocyte line (HaCaT) was cultured in 6-well culture plates for 24 hours, melanosomes isolated from mouse melanoma cell line (B16F10) were pretreated for 48 hours in serum-free culture medium. The plates were washed with PBS to remove un-transferred melanosomes, and then the cells were treated with the peptide at different concentrations (100, 200 uM) or arbutin (200 uM) as a positive control, and TGFβ-1, followed by incubation for 48 hours. In order to measure the degradation of melanosomes phagocytized into keratinocytes, 1 M NaOH was added to pellets obtained by keratinocyte collection and precipitation, and the pellets were dissolved in an oven at 80° C., and then the OD value at 490 nm was measured.
For another assay, the system named is PAR2. The settings on record: HaCaT, trypsin-induced, peptide 100, 200 uM, 16 hours, PCR; FIG. 9. On the procedure: After a human keratinocyte line (HaCaT) was incubated in 6-well culture plates for 24 hours, the cells were treated with trypsin as an activity-inducing material and the present peptide at different concentrations (100, 200 uM). After RNA was extracted from the cells incubated for 16 hours, cDNA was prepared.
PCR was conducted using a primer pair (see table 3 below) specific to PAR2, which is one of surface receptors of keratocytes activated by a trypsin action, and then the change in the expression of each gene was observed.

For assay [8], the system named is human keratinocyte line (HaCaT). The settings on record: peptide 100, 200 uM, 24 hours, Vybrant Phagocytosis Assay Kit, FIG. 12. On the procedure:
After human keratinocyte line (HaCaT) was cultured in 24-well culture plates for 24 hours, the cells were treated with the present peptide at different concentrations (100, 200 uM) or arbutin (200 uM) as a positive control in 0.5% FBS culture medium, followed by incubation for 24 hours. Thereafter, the inhibition of phagocytosis of the human keratinocyte line was observed using the Vybrant Phagocytosis Assay Kit (V-6694).

In assay [9] the test system is melanin-forming cells (B16F10 cell line). The settings on record: B16F10, α-MSH (200 ng/ml), peptide 50, 100, 200 uM, 72 hours; dose-dependent; FIG. 3. On the procedure: After melanin-forming cells (B16F10 cell line) dispensed in 6-well culture plates were incubated in a 37° C. incubator for 24 hours, the medium for each plate was removed and replaced with new medium (10% serum medium). Then, the cells were treated with α-MSH (200 ng/ml), arbutin (500 uM), or the peptide of the present invention at different concentrations (50, 100, 200 uM). The cells were incubated for 72 hours, and then the formed melanin was observed through an optical microscope.

In assay [10] the target is T1, tyrosinase (Mus musculus, UniProt P11344).
T1 construct: endogenous in cells; host or cells: B16F10 mouse melanoma cells
T1 sequence (P11344 19-533): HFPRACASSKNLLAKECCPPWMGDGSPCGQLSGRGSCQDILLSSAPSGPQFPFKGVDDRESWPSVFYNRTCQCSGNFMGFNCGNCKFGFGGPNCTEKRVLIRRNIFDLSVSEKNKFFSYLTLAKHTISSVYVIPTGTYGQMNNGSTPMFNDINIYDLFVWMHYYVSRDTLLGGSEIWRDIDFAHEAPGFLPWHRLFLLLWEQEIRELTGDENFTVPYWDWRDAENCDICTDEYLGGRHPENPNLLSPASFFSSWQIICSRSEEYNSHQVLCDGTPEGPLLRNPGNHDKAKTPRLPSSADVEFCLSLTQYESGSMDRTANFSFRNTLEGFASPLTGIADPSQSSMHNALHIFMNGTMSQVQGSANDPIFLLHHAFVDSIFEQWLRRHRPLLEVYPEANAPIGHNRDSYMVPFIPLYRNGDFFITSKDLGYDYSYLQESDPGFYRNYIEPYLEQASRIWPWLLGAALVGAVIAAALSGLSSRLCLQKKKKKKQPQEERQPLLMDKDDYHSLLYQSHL
Put plainly: Measurement of tyrosinase activity in cells (L-dopa, absorbance at 475 nm). The class given is cell-based. The settings on record: B16F10, α-MSH (200 ng/ml), peptide 50, 100, 200 uM, 72 hours; dose-dependent, **P≤0.01; FIG. 4. On the procedure: The 6-well culture plates were loaded on ice and washed with cool PBS, and then 300 μl of 0.1 M sodium phosphate buffer (pH 6.8 lysis buffer) containing 1% Triton X-100 was added. The cells were collected in a 1.5 mL tube, and then cell membranes were disrupted by repeating rapid-freezing at […] and thawing, five times. Then, the tube was centrifuged at 13,000 rpm for 20 minutes, and then the supernatant was collected in another 1.5 mL tube, and the protein content of the samples was quantified. The samples were diluted to have the same protein concentration and then dispensed in three wells each in a 96-well culture plate, and then 20 μl of 10 mM L-dopa was added, followed by incubation at 37° C. for 1 hour.

Assay [11] has as its system human keratinocyte line (HaCaT). The settings on record: melanosomes isolated from B16F10, peptide 10, 50, 100, 200 uM, 48 hours, FIG. 10.
Description: After human keratinocyte line (HaCaT) was cultured in 6-well culture plates for 24 hours, the melanosomes isolated from mouse melanoma cell line (B16F10) were pretreated for 3 hours in serum-free culture medium, and then the cells were treated with the present peptide at different concentrations (10, 50, 100, 200 uM) or arbutin (200 uM) as a positive control, followed by incubation for 48 hours. Then, the plates were washed with PBS to remove un-transferred melanosomes, and 1 N NaOH was added to pellets, which had been obtained through cell collection and precipitation. Then, 1 M NaOH was added to the pellets, and the pellets were dissolved in an oven at 80° C., and then the OD value at 490 nm was measured.
Assay [12] deals with MITF. The settings on record: B16F10, α-MSH (200 ng/ml), peptide 100, 200 uM, 24 hours, PCR; FIG. 6. On the procedure: (§2) After melanin-forming cells (B16F10 cell line) were incubated in 6-well culture plates for 24 hours, the cells were treated with α-MSH (200 ng/ml), arbutin (500 uM), or the present peptide at different concentrations (100, 200 uM). After RNA was extracted from the cells incubated for 24 hours, cDNA was prepared. Then, PCR was conducted using the primers shown in Table 2 below, which are specific to MITF, tyrosinase, and TRP1, respectively, as melanogenesis-involved factors, and then the change in the expression of each gene was observed.

For a further assay, the system named is TRP1. To be noted: B16F10, α-MSH (200 ng/ml), peptide 100, 200 uM, 24 hours, PCR; FIG. 6. On the procedure: as §2

Description for C57BL/6 mice: Liposomal peptide (5,000 ppm) or arbutin as a positive control was applied to the tail of 8-week-old C57BL/6 mice once a day, and the experiment was conducted for about 8 weeks. After the completion of the experiment, the mice were sacrificed to extract tail skin tissues, which were then embedded in paraffin to manufacture paraffin blocks. Then, the paraffin blocks were made into paraffin sections and morphologically observed through Fontana-Masson staining.

On to “Feruloyl-Ile-Trp-Ser-Leu-Asp-Thr-Gln-Tyr-Gly-Gly-Arg-Gly-Asp-COOH”, for which, in the assay with tyrosinase [1], the tyrosinase expression level result is on record as “tyrosinase expression inhibitory effect”. Besides, the tyrosinase gene expression entry in the assay with tyrosinase [2] is “strong effects of inhibiting MITF, tyrosinase, and TRP1 genes”. The tyrosinase protein expression entry in the assay with tyrosinase [3] is “MITF and tyrosinase protein expression inhibitory effects”. Further, in [4], the “amount of melanosomes transferred into keratinocytes (optical microscope image analysis)” value is reported as “phagocytosis inhibitory effect”. In [5], the melanin production entry is “melanogenesis inhibitory effect”. The MITF protein expression entry with MITF [6] was “MITF and tyrosinase protein expression inhibitory effects”. Moreover, in the assay on CREB, the “degree of phosphorylation of CREB” value was “CREB phosphorylation inhibitory effect”. In addition, the “amount of melanin distributed in the basal layer of the epidermis” value in the assay with C57BL/6 mice was “significantly smaller than that in the control group”. The “degradation of melanosomes transferred into keratinocytes” value in [7] is listed as “promote the degradation of the melanosomes transferred into the keratinocytes”. Moreover, the PAR2 gene expression entry in the assay on PAR2 is recorded as “reduced the expression of PAR2 gene in a dose-dependent manner”. For the same substance, the “amount of bioparticles transferred into keratinocytes (fluorescent microscopic image analysis)” value in [8] is reported as “distinctive phagocytosis inhibitory effect”. Moreover, in assay [9], the “melanin formation observed through cell morphology” value is given as “melanogenesis inhibitory effect”. For the same substance, the “tyrosinase activity in cells” value at tyrosinase [10] is on record as “tyrosinase activity inhibitory effect”. In [11], the “amount of melanosomes transferred into keratinocytes (absorbance)” value was “phagocytosis inhibitory effect”. Besides, the MITF gene expression result in the assay with MITF [12] is “strong effects of inhibiting MITF, tyrosinase, and TRP1 genes”. In addition, the TRP1 gene expression entry in the assay on TRP1 is “strong effects of inhibiting MITF, tyrosinase, and TRP1 genes”.
